Consider 15 molecules from PubChem BioAssay (NCI).

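Compound exposure: 48 hours, 5 concentrations, 96-well plates. At the TGI there is no net growth.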 Some results are limits rather than exact numbers.

The first test relates to NCI/ADR-RES ovarian. As to the kind of experiment: DTP human tumour cell line panel, 48 h.
In the case of `CN1CCN(CN2C(=O)C3C4C=CC(C3C2=O)C2C(=O)N(CN3CCN(C)CC3)C(=O)C42)CC1` (centres undefined), the TGI – broadly, the concentration at which net growth stops – is greater than 100 µM.
Still for that read-out and setting: as for `Cc1ccc(NC(=S)NNC(=O)c2cc(-c3ccccc3)nc3ccccc23)cc1`, the figure is 48 µM; as for `O=C(O)c1cccnc1`, greater than 100 µM; as for `Cc1cn(CCCCCOC(=O)NC(CCCN=C(N)N)C(=O)O)c(=O)[nH]c1=O` (centres undefined), greater than 100 µM.
Still for that read-out and setting: as for `COc1ccc(C(=O)/C=C/c2ccncc2)cc1OC`, the figure is 42.7 µM; as for `Cc1ccc(C(=O)N/N=C(\N=Nc2ccccc2[N+](=O)[O-])c2ccc(N(C)C)cc2)cc1`, greater than 100 µM.
Same read-out and setting: as for `CC1C[C@]2(C)C(=O)Nc3ccccc3[C@@H]2Nc2ccccc21` (some centres undefined), the figure is 46.5 µM.
The molecule `CC(C)C1=C(Cc2ccccc2)C(=O)O/C1=C\c1cc(Cl)c(O)c(Cl)c1` returned a TGI of 52.3 µM.
`O=S(=O)(O)c1ccc(N=Nc2ccc(N=Nc3c(O)ccc4ccccc34)cc2)cc1` registered a TGI greater than 100 µM.

For another test, the system named is CCRF-CEM leukemia. As to the kind of experiment: DTP human tumour cell line panel, 48 h.
For the molecule `CC(CCC#N)(CCC#N)C(=O)CC(O)(C(F)(F)F)C(F)(F)F`, the TGI was 7.84 µM.
Still for that read-out and setting: the figure for `CC(=O)Nc1ccc2cc(C)c(=O)[nH]c2n1` is greater than 100 µM; for `Nc1nc2c(ncn2Cc2ccc(CO)cc2)c(=O)[nH]1` it is greater than 100 µM; for `O=C(NS(=O)(=O)OCC(Cl)(Cl)Cl)SCCC(F)(F)C(F)(F)C(F)(F)C(F)(F)C(F)(F)C(F)(F)F` it is 44.5 µM.
Same read-out and setting: as for `Cc1cc(C)nc(NS(=O)(=O)c2ccc(NNC(=O)c3cccc4c(=O)c5ccccc5[nH]c34)cc2)n1`, the figure is greater than 100 µM; as for `CN1CCN(CN2C(=O)C3C4C=CC(C3C2=O)C2C(=O)N(CN3CCN(C)CC3)C(=O)C42)CC1` (centres undefined), greater than 100 µM; as for `O=C(O)c1cccnc1`, greater than 100 µM.
The same measure, in the same setting: as for `Cc1cn(CCCCCOC(=O)NC(CCCN=C(N)N)C(=O)O)c(=O)[nH]c1=O` (centres undefined), the figure is greater than 100 µM; as for `COc1ccc(C(=O)/C=C/c2ccncc2)cc1OC`, 18.6 µM.
Turning to `Cc1ccc(C(=O)N/N=C(\N=Nc2ccccc2[N+](=O)[O-])c2ccc(N(C)C)cc2)cc1`, the TGI is greater than 100 µM.
The same measure, in the same setting: the figure for `CC1C[C@]2(C)C(=O)Nc3ccccc3[C@@H]2Nc2ccccc21` (some centres undefined) is 63.4 µM; for `CC(C)C1=C(Cc2ccccc2)C(=O)O/C1=C\c1cc(Cl)c(O)c(Cl)c1` it is 41.5 µM; for `O=S(=O)(O)c1ccc(N=Nc2ccc(N=Nc3c(O)ccc4ccccc34)cc2)cc1` it is greater than 100 µM.

For a further test, the system named is NCI-H460 lung. As to the kind of experiment: DTP human tumour cell line panel, 48 h.
For `CC(CCC#N)(CCC#N)C(=O)CC(O)(C(F)(F)F)C(F)(F)F`, the TGI was 39 µM.
The same measure, in the same setting: as for `CC(C)(C)[Si](C)(C)OC1/C(=C/C#N)C(n2ccc(=O)[nH]c2=O)OC1CO` (centres undefined), the figure is greater than 100 µM; as for `CC(=O)Nc1ccc2cc(C)c(=O)[nH]c2n1`, greater than 100 µM.
As for `Nc1nc2c(ncn2Cc2ccc(CO)cc2)c(=O)[nH]1`, the TGI is greater than 100 µM.
With `O=C(NS(=O)(=O)OCC(Cl)(Cl)Cl)SCCC(F)(F)C(F)(F)C(F)(F)C(F)(F)C(F)(F)C(F)(F)F`, the TGI turned out to be 41.5 µM.
Turning to `Cc1cc(C)nc(NS(=O)(=O)c2ccc(NNC(=O)c3cccc4c(=O)c5ccccc5[nH]c34)cc2)n1`, the TGI was greater than 100 µM.
With `CN1CCN(CN2C(=O)C3C4C=CC(C3C2=O)C2C(=O)N(CN3CCN(C)CC3)C(=O)C42)CC1` (centres undefined), the TGI is greater than 93.6 µM.
Still for that read-out and setting: the figure for `Cc1ccc(NC(=S)NNC(=O)c2cc(-c3ccccc3)nc3ccccc23)cc1` is 47.9 µM; for `O=C(O)c1cccnc1` it is greater than 100 µM; for `Cc1cn(CCCCCOC(=O)NC(CCCN=C(N)N)C(=O)O)c(=O)[nH]c1=O` (centres undefined) it is greater than 100 µM.
Still for that read-out and setting: as for `Cc1ccc(C(=O)N/N=C(\N=Nc2ccccc2[N+](=O)[O-])c2ccc(N(C)C)cc2)cc1`, the figure is greater than 100 µM; as for `CC1C[C@]2(C)C(=O)Nc3ccccc3[C@@H]2Nc2ccccc21` (some centres undefined), 65.8 µM; as for `CC(C)C1=C(Cc2ccccc2)C(=O)O/C1=C\c1cc(Cl)c(O)c(Cl)c1`, 41.2 µM.
On the same count and under the same terms, as for `O=S(=O)(O)c1ccc(N=Nc2ccc(N=Nc3c(O)ccc4ccccc34)cc2)cc1`, the figure is greater than 100 µM.

The next test concerns 786-0 renal. As to the kind of experiment: DTP human tumour cell line panel, 48 h.
`CC(CCC#N)(CCC#N)C(=O)CC(O)(C(F)(F)F)C(F)(F)F`: the TGI came to 4.72 µM.
Still for that read-out and setting: the figure for `CC(C)(C)[Si](C)(C)OC1/C(=C/C#N)C(n2ccc(=O)[nH]c2=O)OC1CO` (centres undefined) is greater than 100 µM; for `CC(=O)Nc1ccc2cc(C)c(=O)[nH]c2n1` it is greater than 100 µM; for `Nc1nc2c(ncn2Cc2ccc(CO)cc2)c(=O)[nH]1` it is greater than 100 µM.
For `O=C(NS(=O)(=O)OCC(Cl)(Cl)Cl)SCCC(F)(F)C(F)(F)C(F)(F)C(F)(F)C(F)(F)C(F)(F)F`, the TGI is greater than 100 µM.
Still for that read-out and setting: the figure for `Cc1cc(C)nc(NS(=O)(=O)c2ccc(NNC(=O)c3cccc4c(=O)c5ccccc5[nH]c34)cc2)n1` is greater than 100 µM; for `CN1CCN(CN2C(=O)C3C4C=CC(C3C2=O)C2C(=O)N(CN3CCN(C)CC3)C(=O)C42)CC1` (centres undefined) it is 97.7 µM; for `Cc1ccc(NC(=S)NNC(=O)c2cc(-c3ccccc3)nc3ccccc23)cc1` it is 26.1 µM.
Still for that read-out and setting: as for `O=C(O)c1cccnc1`, the figure is greater than 100 µM; as for `Cc1cn(CCCCCOC(=O)NC(CCCN=C(N)N)C(=O)O)c(=O)[nH]c1=O` (centres undefined), greater than 100 µM.
Same read-out and setting: the figure for `COc1ccc(C(=O)/C=C/c2ccncc2)cc1OC` is 23.5 µM; for `Cc1ccc(C(=O)N/N=C(\N=Nc2ccccc2[N+](=O)[O-])c2ccc(N(C)C)cc2)cc1` it is greater than 100 µM; for `CC1C[C@]2(C)C(=O)Nc3ccccc3[C@@H]2Nc2ccccc21` (some centres undefined) it is 45.2 µM.
The molecule `CC(C)C1=C(Cc2ccccc2)C(=O)O/C1=C\c1cc(Cl)c(O)c(Cl)c1` yielded a concentration for total growth inhibition (TGI) of 32.1 µM.
On to `O=S(=O)(O)c1ccc(N=Nc2ccc(N=Nc3c(O)ccc4ccccc34)cc2)cc1`, for which the TGI was greater than 100 µM.

For a further test, the system named is A498 renal. The test can be described thus: DTP human tumour cell line panel, 48 h.
`CC(CCC#N)(CCC#N)C(=O)CC(O)(C(F)(F)F)C(F)(F)F` yielded a TGI of 40 µM.
Still for that read-out and setting: as for `CC(C)(C)[Si](C)(C)OC1/C(=C/C#N)C(n2ccc(=O)[nH]c2=O)OC1CO` (centres undefined), the figure is greater than 100 µM; as for `CC(=O)Nc1ccc2cc(C)c(=O)[nH]c2n1`, greater than 100 µM.
The same measure, in the same setting: as for `Nc1nc2c(ncn2Cc2ccc(CO)cc2)c(=O)[nH]1`, the figure is greater than 100 µM; as for `O=C(NS(=O)(=O)OCC(Cl)(Cl)Cl)SCCC(F)(F)C(F)(F)C(F)(F)C(F)(F)C(F)(F)C(F)(F)F`, 61.9 µM; as for `Cc1cn(CCCCCOC(=O)NC(CCCN=C(N)N)C(=O)O)c(=O)[nH]c1=O` (centres undefined), 74.3 µM.
On the same count and under the same terms, the figure for `COc1ccc(C(=O)/C=C/c2ccncc2)cc1OC` is 30.9 µM; for `CC1C[C@]2(C)C(=O)Nc3ccccc3[C@@H]2Nc2ccccc21` (some centres undefined) it is 53.4 µM.
`CC(C)C1=C(Cc2ccccc2)C(=O)O/C1=C\c1cc(Cl)c(O)c(Cl)c1` yielded a TGI of 53.1 µM.

A further test concerns UACC-257 melanoma. As to the kind of experiment: DTP human tumour cell line panel, 48 h.
Regarding `CC(CCC#N)(CCC#N)C(=O)CC(O)(C(F)(F)F)C(F)(F)F`, the TGI was determined as 21.1 µM.
On the same count and under the same terms, as for `CC(=O)Nc1ccc2cc(C)c(=O)[nH]c2n1`, the figure is greater than 100 µM; as for `Nc1nc2c(ncn2Cc2ccc(CO)cc2)c(=O)[nH]1`, greater than 100 µM; as for `O=C(NS(=O)(=O)OCC(Cl)(Cl)Cl)SCCC(F)(F)C(F)(F)C(F)(F)C(F)(F)C(F)(F)C(F)(F)F`, greater than 100 µM.
Molecule `Cc1cc(C)nc(NS(=O)(=O)c2ccc(NNC(=O)c3cccc4c(=O)c5ccccc5[nH]c34)cc2)n1` registered a TGI greater than 100 µM.
Still for that read-out and setting: the figure for `CN1CCN(CN2C(=O)C3C4C=CC(C3C2=O)C2C(=O)N(CN3CCN(C)CC3)C(=O)C42)CC1` (centres undefined) is greater than 100 µM; for `Cc1ccc(NC(=S)NNC(=O)c2cc(-c3ccccc3)nc3ccccc23)cc1` it is 33 µM; for `O=C(O)c1cccnc1` it is greater than 100 µM.
The same measure, in the same setting: the figure for `Cc1cn(CCCCCOC(=O)NC(CCCN=C(N)N)C(=O)O)c(=O)[nH]c1=O` (centres undefined) is greater than 100 µM.
